Source: ChEMBL document CHEMBL1148569, “Aza-analogues of the marine pyrroloquinoline alkaloids wakayin and tsitsikammamines: synthesis and topoisomerase inhibition” (Bioorg Med Chem Lett, 2006)
Activity calls are given as the source filed them. The calls are words filed in the database; no cut-off is given here.

Legend:
[1] = target: DNA topoisomerase II (Homo sapiens) (UniProt P11388+Q02880); experiment: Inhibition of Topoisomerase 2 mediated DNA cleavage activity in a cell free assay at 100 uM; type: protein assay
[2] = target: T1, DNA topoisomerase 1 (Homo sapiens) (UniProt P11387); experiment: Inhibition of Topoisomerase 1 mediated DNA cleavage activity in a cell free assay at 100 uM
T1 sequence (whole entry): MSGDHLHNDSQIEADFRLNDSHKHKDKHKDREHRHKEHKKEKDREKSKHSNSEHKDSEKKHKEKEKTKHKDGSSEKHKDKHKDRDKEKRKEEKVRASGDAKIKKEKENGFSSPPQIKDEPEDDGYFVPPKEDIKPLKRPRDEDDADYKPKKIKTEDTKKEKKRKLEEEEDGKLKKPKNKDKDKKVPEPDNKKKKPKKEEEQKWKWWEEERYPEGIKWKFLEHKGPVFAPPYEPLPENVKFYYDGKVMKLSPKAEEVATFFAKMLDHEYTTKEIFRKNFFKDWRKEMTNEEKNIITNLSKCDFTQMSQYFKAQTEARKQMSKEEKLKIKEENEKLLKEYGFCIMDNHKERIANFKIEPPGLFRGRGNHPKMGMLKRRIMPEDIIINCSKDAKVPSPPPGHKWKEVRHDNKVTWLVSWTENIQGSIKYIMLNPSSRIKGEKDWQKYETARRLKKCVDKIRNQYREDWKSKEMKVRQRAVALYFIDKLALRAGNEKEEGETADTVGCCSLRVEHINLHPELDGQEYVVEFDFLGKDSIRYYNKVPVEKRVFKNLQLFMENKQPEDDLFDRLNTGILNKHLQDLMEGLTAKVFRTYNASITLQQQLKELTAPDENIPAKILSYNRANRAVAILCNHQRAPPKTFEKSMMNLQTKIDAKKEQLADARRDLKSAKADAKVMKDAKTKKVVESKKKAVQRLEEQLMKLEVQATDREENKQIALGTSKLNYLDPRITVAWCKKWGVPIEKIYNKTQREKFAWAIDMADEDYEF

| SMILES | Activity [1] | Activity [2] |
| --- | --- | --- |
| O=C1c2[nH]ccc2C2=NCCc3n[nH]c1c32 | inactive | Active |
| O=C1c2cc[nH]c2C2=NCCc3n[nH]c1c32 | inactive | inactive |
